Legend:
CIA mice [1] = test: Bone loss around paw joint (micro CT) in CIA mice; assay type: in vivo; conditions: bone amount in the paw joint, FIG. 9
Method: FIG. 9 is photographs taken through micro CT and graphs showing effects of inhibiting reduction of bone loss around the joints in the embodiments of the present invention.
(§1) In the examples of the present invention, efficacies of the composition of the present invention were investigated by establishing animal models CIA or SIA with animal diseases similar to rheumatoid arthritis of the human body. Specifically, 100 μl of 250 μg or 500 μg of the compound YKL-05-099 (CAS No.: 1936529-65-5) shown in FIG. 1 was intraperitoneally (i.p.) administered to a mouse weighed 25 g (that is, 10 mg or 20 mg per 1 kg) once a day.

[2] = system: spleen and the lymph nodes; test: Expansion of spleen and lymph tissues (inguinal and mesenteric lymph nodes); assay type: in vivo, mice; conditions: compared to the control, FIG. 8
Method: In the examples of the present invention, efficacies of the composition of the present invention were investigated by establishing animal models CIA or SIA with animal diseases similar to rheumatoid arthritis of the human body. Specifically, 100 μl of 250 μg or 500 μg of the compound YKL-05-099 (CAS No.: 1936529-65-5) shown in FIG. 1 was intraperitoneally (i.p.) administered to a mouse weighed 25 g (that is, 10 mg or 20 mg per 1 kg) once a day. […] Disease-free mice without administration of antigens were used as a negative control, and the compared results are shown in FIG. 8.

CIA mice [3] = test: Rheumatoid arthritis clinical score in CIA mice; assay type: in vivo; conditions: 10 mg/kg or 20 mg/kg, score 0-4 per paw, four paws combined, FIG. 6
Method: as §1
(§2) With regard to rheumatoid arthritis animal models CIA and SIA, respectively, rheumatoid arthritis clinical score was investigated. Disease-free mice without administration of antigen were used as a negative control. The clinical scores were determined depending on significance as follows: 0 (no symptom); 1 (slight edema on the soles or toes); 2 (significant edema throughout the soles and toes); 3 (significant to serious edema throughout the paw); 4 (serious edema and distortion throughout the paw), and then, the results for four paws were combined. FIG. 6 illustrates the results for CIA mice, and FIG. 7 illustrates the results for SIA mice, respectively.

CD4+ Foxp3+ cells (Treg) = test: Treg cell level in spleen cells of CIA mice by flow cytometry; assay type: in vivo; conditions: for ratio of CD4+ Foxp3+ cells as a marker for Treg: spleen live cells, CIA+Veh 12.24±0.34%, sham 10.725±0.53%
Method: After i.p. administration of YKL-05-099 in an amount of 10 mg/kg or 20 mg/kg to the rheumatoid arthritis model CIA mice once a day, spleen cells were isolated at a time of sacrificing the mice to investigate Treg cell levels. Immune cell assay was performed through flow cytometry, and the experiment was implemented according to product instructions of Invitrogen Co. Specifically, the spleen cells were isolated to prepare 1×10^6 cells/100 μl of single cells, followed by staining live/dead cells using fixable viability dye (Invitrogen, eFluor™780, 65-0865-14), and then blocking the same using anti-CD16/32 (Invitrogen, 14-0161). Following this, the above product was stained using anti-CD4 (Invitrogen, RM4-5, mice) and anti-Foxp3 (Invitrogen, FJK-16s, mice). The stained cells were subjected to measurement of a ratio of CD4^+ Foxp3^+ cells as a marker for Treg in live cells isolated through flow cytometry.
FIGS. 12A and 12B illustrate the above measured results. From the results of measuring a ratio of CD4^+ Foxp3^+ cells as a marker for Treg, it was confirmed that sham (disease-free mice) is 10.725±0.53%, CIA+Veh is 12.24±0.34%, CIA+YKL-05-099 10 mg/kg is 14.2±1.28%, CIA+YKL-05-099 20 mg/kg is 14.98±1.16%, respectively. Using unpaid parametric Welch's corrected t-test (two-tailed), p-value was indicated. With regard to statistically significant levels, p-value is 0.05 or less, wherein significance was represented by *p<0.05, **p<0.01 and ***p<0.001. Sham vs CIA+Veh p-value is 0.0045, CIA+YKL-05-099 10 mg/kg vs CIA+Veh p-value is 0.0119, CIA+YKL-05-099 20 mg/kg vs CIA+Veh p-value is 0.0046, CIA+YKL-05-099 10 mg/kg vs sham p-value is 0.0005, and CIA_YKL-05-099 20 mg/kg vs sham p-value is 0.0004.

CIA mice [4] = test: Edema of paws and joints / paw thickness in CIA mice; assay type: in vivo
Method: In the present invention, “CIA” is used for an animal model suffering from rheumatoid arthritis and means “collagen-induced arthritis.”
as §1
(§3) After i.p. administration of YKL-05-099 in an amount of 10 mg/kg or 20 mg/kg to mice having rheumatoid arthritis once a day, improvement of edema in the paws was investigated. For definite measurement and comparison, the most swollen portion of the paw was measured in multiple times, and collected numerical values of paw thickness were recorded and compared. Disease-free mice without administration of antigens were used as a negative control.
(§4) FIG. 4 illustrates measured results of the paw thickness of CIA mice while FIG. 5 illustrates measured results of the paw thickness of SIA mice, respectively.

[5] = system: CD11b+ F4/80+ cells (macrophage cells); test: Macrophage cell level in spleen cells of CIA mice by flow cytometry; assay type: in vivo; conditions: for ratio of CD11b+ F4/80+ cells as a marker for macrophage cells: spleen live cells, CIA+Veh 1.854±0.41%, sham 0.355±0.08%
Method: In order to confirm mitigation effects of increase in immune active macrophage cells in the spleen, after i.p. administration of YKL-05-099 in an amount of 10 mg/kg or 20 mg/kg to the rheumatoid arthritis model CIA mice once a day, spleen cells were isolated at a time of sacrificing the mice to investigate macrophage cell levels. FIGS. 13A and 13B illustrate the above results of investigating macrophage cell levels. Immune cell assay was performed through flow cytometry, and the experiment was implemented according to product instructions of Invitrogen Co.
Specifically, the spleen cells were isolated to prepare 1×10^6 cells/100 μl of single cells, followed by staining live/dead cells using fixable viability dye (Invitrogen, eFluor™780, 65-0865-14), and then blocking the same using anti-CD16/32 (Invitrogen, 14-0161). Following this, the above product was stained using anti-CD11b (Invitrogen, M1/70) and anti-F4/80 (Invitrogen, BM8). The stained cells were subjected to measurement of a ratio of CD11b^+ F4/80^+ cells as a marker for macrophage cells in live cells isolated through flow cytometry.
From the result of measuring a ratio of CD11b^+ F4/80^+ cells as a marker for macrophage cells, it was confirmed that sham is 0.355±0.08%, CIA+Veh is 1.854±0.41%, CIA+YKL-05-099 10 mg/kg is 1.043±0.30%, CIA+YKL-05-099 20 mg/kg is 0.975±0.12%, respectively. Using unpaid parametric Welch's corrected t-test (two-tailed), p-value was indicated. With regard to statistically significant levels, p-value is 0.05 or less, wherein significance was represented by *p<0.05, **p<0.01 and ***p<0.001. CIA+Veh vs sham p-value is 0.0009, CIA+YKL-05-099 20 mg/kg vs CIA+Veh p-value is 0.0057, CIA+YKL-05-099 10 mg/kg vs sham p-value is 0.0019, CIA+YKL-05-099 20 mg/kg vs sham p-value is 0.0002, and CIA+YKL-05-099 10 mg/kg vs CIA+Veh p-value is 0.0076.

[6] = system: TNF-α, IL-6, IFN-γ, IL-17a; test: Inflammatory cytokines in peripheral blood by ELISA, CIA mice; assay type: in vivo; conditions: ELISA at time of sacrifice, FIG. 10
Method: as §1
(§5) After administering YKL-05-099 to the rheumatoid arthritis animal model, essential inflammatory cytokines to induce rheumatoid arthritis such as TNF-α and IL-6, the representative immunoreactive cytokine of TH1 such as IFN-γ, and the representative immunoreactive cytokine of TH17 such as 1L-17a within peripheral blood at a time of sacrificing the mouse were subjected to analysis through enzyme linked immunosorbent assay (ELISA). Specifically, cytokine analysis was implemented using ELISA kit products according to instructions of Invitrogen Co., wherein the used product serial numbers are anti-IFN-γ (88-7314), anti-TNF-α (88-7324), anti-IL-17a (88-7371) and anti-IL-6 (88-7064). Disease-free mice without administration of antigens were used as a negative control. […] FIG. 10 illustrates measured results of cytokines in CIA mice while FIG. 11 illustrates measured results of cytokines in SIA mice, respectively.

SIA mice [7] = test: Edema of paws and joints / paw thickness in SIA mice; assay type: in vivo
Method: In the present invention, “SIA” is used for an animal model suffering from rheumatoid arthritis and means “serum transfer arthritis.”
as §1, §3, §4

[8] = system: TNF-α, IL-6, IFN-γ, IL-17a; test: Inflammatory cytokines in peripheral blood by ELISA, SIA mice; assay type: in vivo; conditions: ELISA at time of sacrifice, FIG. 11
Method: as §1, §5

SIA mice [9] = test: Rheumatoid arthritis clinical score in SIA mice; assay type: in vivo; conditions: 10 mg/kg or 20 mg/kg, score 0-4 per paw, four paws combined, FIG. 7
Method: as §1, §2

## COc1ccc(N2C(=O)N(c3c(C)cccc3Cl)Cc3cnc(Nc4ccc(C5CCN(C)CC5)cc4OC)nc32)nc1 [YKL-05-099]
CIA mice [1]
  bone loss in paw joint: significantly inhibited
[2]
  expansion of the spleen and the lymph nodes: greatly suppressed
CIA mice [3]
  rheumatoid arthritis clinical scores: significantly reduced
CD4+ Foxp3+ cells (Treg); 10 mg/kg and 20 mg/kg
  ratio of Treg cells compared to CIA+Veh: statistically significant increase
CD4+ Foxp3+ cells (Treg); 10 mg/kg i.p. once a day, p vs Veh 0.0119
  ratio of CD4+ Foxp3+ cells as a marker for Treg: 14.2±1.28%
CD4+ Foxp3+ cells (Treg); 20 mg/kg i.p. once a day, p vs Veh 0.0046
  ratio of CD4+ Foxp3+ cells as a marker for Treg: 14.98±1.16%
CIA mice [4]; 10 mg/kg or 20 mg/kg i.p. once a day, compared to the control, FIG. 2
  edema of the paws and around the joints (visually observed): remarkably improved
CIA mice [4]; vs vehicle administered group, FIG. 4
  paw thickness: remarkably thinner
[5]; 10 mg/kg and 20 mg/kg
  ratio of macrophage cells compared to CIA+Veh: statistically significant decrease
[5]; 10 mg/kg i.p. once a day, p vs Veh 0.0076
  ratio of CD11b+ F4/80+ cells as a marker for macrophage cells: 1.043±0.30%
[5]; 20 mg/kg i.p. once a day, p vs Veh 0.0057
  ratio of CD11b+ F4/80+ cells as a marker for macrophage cells: 0.975±0.12%
[6]
  inflammatory cytokines (TNF-α, IL-6, IFN-γ, IL-17a) within peripheral blood: greatly suppressed
SIA mice [7]; 10 mg/kg or 20 mg/kg i.p. once a day, compared to the control, FIG. 3
  edema of the paws and around the joints (visually observed): remarkably improved
SIA mice [7]; vs vehicle administered group, FIG. 5
  paw thickness: remarkably thinner
[8]
  inflammatory cytokines (TNF-α, IL-6, IFN-γ, IL-17a) within peripheral blood: greatly suppressed
SIA mice [9]
  rheumatoid arthritis clinical scores: significantly reduced

— patent publication US12642801B2, “Pharmaceutical composition for preventing or treating rheumatoid arthritis and health functional food” (SEOUL NATIONAL UNIVERSITY R&DB FOUNDATION, priority 2021, dated 2026)
